One may read the Cmax as the maximum level reached in the sampled fluid or tissue. The term half-life denotes the time needed for the level to fall by half in the phase considered. Low readings indicate rapid decline, high ones slow decline. What is called Tmax is the time at which the peak concentration occurs. In general, EC50 refers to the concentration needed to bring the measured effect to its halfway point. One may read the AUC(0-t) as exposure summed from dosing to a finite time, without extrapolation to infinity. Low values mean low exposure, high ones high exposure.

The text below walks through data of ChEMBL document CHEMBL5579801, “Novel orexin receptor agonists based on arene- or pyridine-fused 1,3-dihydro-2H-imidazole-2-imines” (Bioorg Med Chem Lett, 2024).

Data set [1] in a line: Cmax in mouse brain at 5 mg/kg,iv administration. The format is ADME, organism-based.
The nature of data set [2]: Ratio of Cmax in mouse brain to plasma at 5 mg/kg,iv administration. The format is ADME, organism-based.
A short description of data set [3]: Half life in mouse brain at 5 mg/kg,iv administration. The format is ADME, organism-based.
Data set [4] in a line: Cmax in mouse plasma at 5 mg/kg,iv administration. The format is ADME, organism-based.
Data set [5] can be described thus: Tmax in mouse plasma at 5 mg/kg,iv administration. The format is ADME, organism-based.
Data set [6] is described as follows: Half life in mouse plasma at 5 mg/kg,iv administration. The format is ADME, organism-based.
Data set [7] can be described thus: Ratio of AUC in mouse brain to plasma at 5 mg/kg,iv administration. The format is ADME, organism-based. The conditions noted are these: read-out: Ratio AUC.
Another data set deals with HEK293. The data set can be described thus: Cytotoxicity against human HEK293 cells upto 100 uM incubated for 3 days. The format is toxicity, cell-based. The conditions noted are these: hek293, 72 h, time 3 day.
A further data set addresses T1, Orexin receptor type 2 (Homo sapiens, UniProt O43614).
T1 sequence (O43614 whole entry): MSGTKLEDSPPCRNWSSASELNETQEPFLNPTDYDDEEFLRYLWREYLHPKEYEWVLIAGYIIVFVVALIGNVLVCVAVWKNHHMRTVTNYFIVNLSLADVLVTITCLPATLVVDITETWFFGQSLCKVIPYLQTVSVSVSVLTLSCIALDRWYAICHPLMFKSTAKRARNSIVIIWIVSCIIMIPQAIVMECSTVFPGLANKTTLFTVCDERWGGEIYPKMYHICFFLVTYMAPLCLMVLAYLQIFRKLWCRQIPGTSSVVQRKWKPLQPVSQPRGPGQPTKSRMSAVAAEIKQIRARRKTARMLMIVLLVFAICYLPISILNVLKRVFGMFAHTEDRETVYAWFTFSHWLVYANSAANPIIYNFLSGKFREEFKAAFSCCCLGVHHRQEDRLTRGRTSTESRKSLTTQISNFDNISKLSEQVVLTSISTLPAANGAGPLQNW
The data set can be described thus: Agonist activity at human OX2R expressed in human HEK293 cells co-transfected with human Galphaq assessed as accumulation of inositol phosphate by scintillation counter analysis.

Data set [8] can be described thus: Tmax in mouse brain at 5 mg/kg,iv administration. The format is ADME, organism-based.
Data set [9] in a line: AUClast in mouse brain at 5 mg/kg,iv administration. The conditions noted are these: in vivo. The format is ADME, organism-based.
Data set [10] can be described thus: AUClast in mouse plasma at 5 mg/kg,iv administration. The format is ADME, organism-based.

Take `Cc1ccc(C[C@@H](CNC(=O)CO)n2c(=N)n(C(C)c3ccc(C)cc3)c3ccccc32)cc1` (stereo in doubt; 65c): the Cmax in [1] came out at 15.3 ng/g; in data set [4], 600 ng/mL. In addition, the values for the Kp in data set [2] and in data set [7] were 0.026 and 0.27, respectively. In addition, the half-life in data set [3] came out at 12.2 h; in [6], 3.83 h. Also, the time of peak concentration (Tmax) in data set [5] was 0.167 h; in [8], 0.5 h. The Activity entry with HEK293 is reported as “Non-Toxic”. Further, the EC50 on Orexin receptor type 2 is 437 nM. Besides, the AUClast in data set [9] stood at 11291 ng·min/g. This compound had an AUC(0-t) in [10] of 691 ng·h/mL.
